# Columns and labels:
# [1] = system: Aspergillus parasiticus; format: cell-based; conditions: 7 days at 20° C., OD620nm
# [2] = system: Pyrenophora teres; experiment: In vivo preventive test on Pyrenophora teres (barley), Example F; conditions: 500 ppm of active ingredient, evaluated 7-9 days after inoculation
# Procedure: (§1) Solvent: 49 parts by weight of N,N-dimethylformamide Emulsifier: 1 part by weight of alkylaryl polyglycol ether To produce a suitable preparation of active compound, 1 part by weight of active compound is mixed with the stated amounts of solvent and emulsifier, and the concentrate is diluted with water to the desired concentration. To test for preventive activity, young plants are sprayed with the preparation of active compound at the stated rate of application. One day after this treatment, the plants are inoculated with an aqueous spore suspension of Pyrenophora teres. […] Then the plants are placed in a greenhouse at a temperature of approximately 20° C. and a relative atmospheric humidity of approximately 80%.
# [3] = system: Aflatoxins production by Aspergillus parasiticus; format: cell-based
# [4] = system: Alternaria solani; experiment: In vivo preventive test on Alternaria solani (tomato); conditions: 500 ppm of active ingredient, evaluated 7 days after inoculation
# Procedure: as §1, with “Alkylarylpolyglycolether” for “alkylaryl polyglycol ether”, “Alternaria solani.” for “Pyrenophora teres.”, “an incubation cabinet” for “a greenhouse”, “at” for “at a temperature of”, “96%.” for “approximately 80%.”
# [5] = log P by HPLC on reversed-phase column (C18), EEC Directive 79/831 Annex V.A8; format: physicochemical; conditions: 40° C., 0.1% aqueous formic acid and acetonitrile, linear gradient 10% to 90% acetonitrile
# Procedure: In table 1, the log P values were determined in accordance with EEC Directive 79/831 Annex V.A8 by HPLC (High Performance Liquid Chromatography) on a reversed-phase column (C18), using the method described below:
# Temperature: 40° C.; Mobile phases: 0.1% aqueous formic acid and acetonitrile; linear gradient from 10% acetonitrile to 90% acetonitrile.
# Calibration was carried out using unbranched alkan-2-ones (comprising 3 to 16 carbon atoms) with known log P values (determination of the log P values by the retention times using linear interpolation between two successive alkanones). lambda-max-values were determined using UV-spectra from 200 nm to 400 nm and the peak values of the chromatographic signals.
Molecule,% Inhibition of fungal growth at 50 μM [1] [%],Efficacy [2] [%],% Inhibition of Aflatoxin at 50 μM [3] [%],Efficacy [4] [%],logP [5],chromatographic logP [5]
Cn1nc(C(F)F)c(C(=O)NC[Si](C)(C)c2ccccc2)c1F [Example 1],93,100,100,100,3.13,–
Cn1nc(C(F)F)c(C(=O)NC[Si](C)(C)c2ccccc2)c1Cl [Example 2],71,100,87,95,3.31,–
Cc1cc(C(=O)NC[Si](C)(C)c2ccccc2)c(C)o1 [Example 3],–,–,–,–,3.48,–
"Cc1nn(C)c(F)c1C(=O)N(C[Si](C)(C)c1ccccc1)C1CC1 [Example 8, N-cyclopropyl-N-{[dimethyl(phenyl)silyl]methyl}-5-fluoro-1,3-dimethyl-1H-pyrazole-4-carboxamide]",–,–,–,–,–,3.19
Cc1cc(C(=O)NC[Si](C)(C)c2ccccc2Cl)c(C)o1 [Example 13],–,–,–,–,3.85,–
Cn1nc(C(F)F)c(C(=O)NC[Si](C)(C)c2ccccc2Cl)c1Cl [Example 14],–,–,–,–,3.69,–
Cn1nc(C(F)F)c(C(=S)NC[Si](C)(C)c2ccccc2Cl)c1F [Example 16],–,–,–,70,4.11,–
Cc1cc(C(=O)N(C[Si](C)(C)c2ccccc2Cl)C2CC2)c(C)o1 [Example 22],–,80,–,95,4.74,–
Cc1cc(C(=O)NC[Si](C)(C)c2cccc(Cl)c2)c(C)o1 [Example 23],–,–,–,–,3.92,–
Cn1cc(C(=O)NC[Si](C)(C)c2cccc(Cl)c2)c(C(F)F)c1 [Example 24],–,–,–,–,3.58,–
Cn1nc(C(F)F)c(C(=O)NC[Si](C)(C)c2cccc(Cl)c2)c1Cl [Example 25],84,100,99,100,3.71,–
Cn1nc(C(F)F)c(C(=O)NC[Si](C)(C)c2cccc(Cl)c2)c1F [Example 26],100,100,100,100,3.55,–
Cc1cc(C(=O)N(C[Si](C)(C)c2cccc(Cl)c2)C2CC2)c(C)o1 [Example 29],–,95,–,94,4.78,–
Cc1cc(C(=O)NC[Si](C)(C)c2ccc(Cl)cc2Cl)c(C)o1 [Example 33],–,–,–,–,4.46,–
Cn1cc(C(=O)NC[Si](C)(C)c2ccc(Cl)cc2Cl)c(C(F)F)c1 [Example 34],–,–,–,–,4.06,–
Cn1nc(C(F)F)c(C(=O)NC[Si](C)(C)c2ccc(Cl)cc2Cl)c1Cl [Example 35],–,–,–,90,4.25,–
Cn1nc(C(F)F)c(C(=O)NC[Si](C)(C)c2ccc(Cl)cc2Cl)c1F [Example 36],84,100,100,100,4.06,–
Cn1nc(C(F)F)c(C(=S)NC[Si](C)(C)c2ccc(Cl)cc2Cl)c1F [Example 37],–,–,–,–,4.74,–
Cc1nc(C(F)F)c(C(=O)N(C[Si](C)(C)c2ccc(Cl)cc2Cl)C2CC2)s1 [Example 43],–,100,–,100,5.00,–
Cc1cc(C(=O)NC[Si](C)(C)c2cc(Cl)cc(Cl)c2)c(C)o1 [Example 44],–,–,–,–,4.54,–
Cn1cc(C(=O)NC[Si](C)(C)c2cc(Cl)cc(Cl)c2)c(C(F)F)c1 [Example 45],–,–,–,–,4.11,–
Cn1nc(C(F)F)c(C(=O)NC[Si](C)(C)c2cc(Cl)cc(Cl)c2)c1Cl [Example 46],84,100,99,95,4.27,–
Cn1nc(C(F)F)c(C(=O)NC[Si](C)(C)c2cc(Cl)cc(Cl)c2)c1F [Example 47],100,95,100,100,4.08,–
Cc1cc(C(=O)N(C[Si](C)(C)c2cc(Cl)cc(Cl)c2)C2CC2)c(C)o1 [Example 50],–,95,–,100,5.51,–

Molecule,% Inhibition of fungal growth at 50 μM [1] [%],Efficacy [2] [%],% Inhibition of Aflatoxin at 50 μM [3] [%],Efficacy [4] [%],logP [5],chromatographic logP [5]
Cc1nc(C(F)F)c(C(=O)N(C[Si](C)(C)c2cc(Cl)cc(Cl)c2)C2CC2)s1 [Example 53],–,95,–,80,4.92,–
Cn1nc(C(F)F)c(C(=O)N(C[Si](C)(C)Cc2ccccc2)C2CC2)c1Cl [Example 54],–,100,–,95,4.20,–
Cc1cc(C(=O)N(C[Si](C)(C)Cc2ccccc2)C2CC2)c(C)o1 [Example 56],–,–,–,–,4.67,–
Cn1nc(C(F)F)c(C(=S)N(C[Si](C)(C)Cc2ccccc2)C2CC2)c1F [Example 57],–,–,–,95,4.67,–
Cc1cc(C(=O)N(C[Si](C)(C)Cc2ccccc2Cl)C2CC2)c(C)o1 [Example 58],–,–,–,–,5.08,–
Cn1cc(C(=O)N(C[Si](C)(C)Cc2ccccc2Cl)C2CC2)c(C(F)F)c1 [Example 59],–,70,–,–,4.56,–
Cn1nc(C(F)F)c(C(=O)N(C[Si](C)(C)Cc2ccccc2Cl)C2CC2)c1Cl [Example 60],84,95,100,95,4.56,–
Cn1nc(C(F)F)c(C(=O)N(C[Si](C)(C)Cc2ccccc2Cl)C2CC2)c1F [Example 61],100,100,100,100,4.41,–
Cn1nc(C(F)F)c(C(=S)N(C[Si](C)(C)Cc2ccccc2Cl)C2CC2)c1F [Example 62],–,100,–,80,5.00,–
Cc1cc(C(=O)N(C[Si](C)(C)Cc2cccc(Cl)c2)C2CC2)c(C)o1 [Example 63],–,–,–,70,5.11,–
Cn1cc(C(=O)N(C[Si](C)(C)Cc2cccc(Cl)c2)C2CC2)c(C(F)F)c1 [Example 64],–,–,–,–,4.62,–
Cn1nc(C(F)F)c(C(=O)N(C[Si](C)(C)Cc2cccc(Cl)c2)C2CC2)c1Cl [Example 65],72,100,82,95,4.59,–
Cn1nc(C(F)F)c(C(=O)N(C[Si](C)(C)Cc2cccc(Cl)c2)C2CC2)c1F [Example 66],100,100,100,100,4.44,–
Cn1nc(C(F)F)c(C(=O)N(C[Si](C)(C)Cc2cc(Cl)cc(Cl)c2)C2CC2)c1Cl [Example 67],86,–,100,78,5.14,–
Cn1cc(C(=O)N(C[Si](C)(C)Cc2ccc(Cl)cc2Cl)C2CC2)c(C(F)F)c1 [Example 68],–,–,–,70,5.19,–
Cn1nc(C(F)F)c(C(=O)N(C[Si](C)(C)Cc2ccc(Cl)cc2Cl)C2CC2)c1Cl [Example 69],85,100,100,100,5.19,–
Cn1nc(C(F)F)c(C(=O)N(C[Si](C)(C)Cc2ccc(Cl)cc2Cl)C2CC2)c1F [Example 70],100,100,100,100,5.03,–
Cn1nc(C(F)F)c(C(=S)N(C[Si](C)(C)Cc2ccc(Cl)cc2Cl)C2CC2)c1F [Example 71],–,100,–,95,5.57,–
Cn1nc(C(F)F)c(C(=O)N(C[Si](C)(C)Cc2cc(Cl)cc(Cl)c2)C2CC2)c1F [Example 72],100,–,100,89,4.98,–
Cc1cc(C(=O)N(C[Si](C)(C)Cc2ccc(Cl)cc2Cl)C2CC2)c(C)o1 [Example 73],–,–,–,–,5.78,–
Cn1nc(C(F)F)c(C(=O)N(C[Si](C)(C)c2ccc3ccccc3c2)C2CC2)c1Cl [Example 77],–,–,–,–,4.51,–
C[Si](C)(CN(C(=O)c1ccsc1I)C1CC1)c1ccc2ccccc2c1 [Example 78],–,–,–,–,5.17,–
N-cyclohexyl-N-{[dimethyl(phenyl)silyl]methyl}-2-furamide [Example 5],–,–,–,–,3.73,–

# From patent US9556205B2, “Fungicide N-[(trisubstitutedsilyl)methyl]-carboxamide derivatives” (BAYER INTELLECTUAL PROPERTY GMBH, priority 2010, dated 2017)
